Laboratory results published in patent US6498174B1, “Substituted oxazoles and thiazoles derivatives as hPPARγ and hPPARα activators” (SmithKline Beecham Corporation, priority 1998, dated 2002).

Test system: Male Zucker Diabetic Fatty rats
Test: In vivo evaluation in Zucker Diabetic Fatty rats
Design: species or system rat
Details: oral gavage b.i.d., 7 days, percent reduction from vehicle control at day 7 relative to normalization (plasma glucose 140 mg/dL)
Experimental: Male Zucker Diabetic Fatty rats were lightly anesthetized with isofluorane gas and bleed by tail vein to obtain postprandial baseline concentrations for plasma glucose, serum lipids and insulin. Animals were baseline matched by plasma glucose and randomized into vehicle or treatment groups with compound administration by oral gavage, b.i.d., beginning at 8.5 weeks of age. Selected compounds were administered as a suspension in 0.5% methylcellulose for 7 consecutive days. Changes in body weight and food consumption were monitored from representative animals from each group, over a 48 hr period. After 7 days of treatment animals were anesthetized, blood samples obtained and analyzed for plasma glucose and lactate, serum triglyceride, total and HDL cholesterol, non-esterified free fatty acids and insulin concentration. Livers were weighed and corrected for body weight. Values in Table 1 for % Glucose reduction represent a summary of the percent reduction from vehicle control animals at day 7 relative to normalization defined in this model as plasma glucose levels of 140 mg/dL.

Row | Structure (SMILES) | % Glucose Reduction [%]
1 | Cc1sc(-c2ccc(F)cc2)nc1CCOc1ccc(C[C@H](N/C(=C\C(=O)c2ccccc2)C(F)(F)F)C(=O)O)cc1 [Example 21, (2S)-3-(4-{2-[2-(4-fluorophenyl)-5-methyl-1,3-thiazol-4-yl]ethoxy}phenyl)-2-{[(Z)-3-oxo-3-phenyl-1-(trifluoromethyl)-1-propenyl]amino}propanoic acid] | 82
2 | C/C(=C/C(=O)c1ccc(Cl)cc1)N[C@@H](Cc1ccc(OCCc2nc(-c3ccccc3)oc2C)cc1)C(=O)O [Example 24, (2S)-2-{[(Z)-3-(4-chlorophenyl)-1-methyl-3-oxo-1-propenyl]amino}-3-{4-[2-(5-methyl-2-phenyl-1,3-oxazol-4-yl)ethoxy]phenyl}propanoic acid] | 45
3 | CC/C(=C/C(=O)c1ccccc1)N[C@@H](Cc1ccc(OCCc2nc(-c3ccccc3)oc2C)cc1)C(=O)O [Example 20, (2S)-2-{[(Z)-1-ethyl-3-oxo-3-phenyl-1-propenyl]amino}-3-{4-[2-(5-methyl-2-phenyl-1,3-oxazol-4-yl)ethoxy]phenyl}propanoic acid] | 50
4 | Cc1oc(-c2ccccc2)nc1CCOc1ccc(C[C@H](N/C(=C\C(=O)c2ccccc2)C(F)(F)F)C(=O)O)cc1 [Example 48, (2S)-3-{4-[2-(5-methyl-2-phenyl-1,3-oxazol-4-yl)ethoxy]phenyl}-2{[(Z)-3-oxo-3-phenyl-1-(trifluoromethyl)-1-propenyl]amino}propanoic acid] | 81
5 | C/C(=C/C(=O)c1ccccc1)N[C@@H](Cc1ccc(OCCc2nc(-c3ccccc3)oc2C)cc1)C(=O)O [Example 1, (2S)-2{[(Z)-1-methyl-3-oxo-3-phenyl-1-propenyl]amino}-3-{4-[2-(5-methyl-2-phenyl-1,3-oxazol-4-yl)ethoxy]phenyl}propanoic acid] | 39
6 | C/C(=C/C(=O)c1cc(F)c(F)cc1F)N[C@@H](Cc1ccc(OCCc2nc(-c3ccccc3)oc2C)cc1)C(=O)O [Example 16, (2S)-2-{[(Z)-1-methyl-3-oxo-3-(2,4,5-trifluorophenyl)-1-propenyl]amino}-3-{4-[2-(5-methyl-2-phenyl-1,3-oxazol-4-yl)ethoxy]phenyl}propanoic acid] | 59
7 | C/C(=C/C(=O)c1ccc(F)c(F)c1F)N[C@@H](Cc1ccc(OCCc2nc(-c3ccccc3)oc2C)cc1)C(=O)O [Example 12, (2S)-2-{[(Z)-1-methyl-3-oxo-3-(2,3,4-trifluorophenyl)-1-propenyl]amino}-3-{4-[2-(5-methyl-2-phenyl-1,3-oxazol-4-yl)ethoxy]phenyl}propanoic acid] | 61
8 | C/C(=C/C(=O)c1ccccc1)N[C@@H](Cc1ccc(OCCc2nc(-c3ccc(C(F)(F)F)cc3)oc2C)cc1)C(=O)O [Example 7, (2S)-2-{[(Z)-1-methyl-3-oxo-3-phenyl-1-propenyl]amino}-3-[4-(2-{5-methyl-2-[4-(trifluoromethyl)phenyl]-1,3-oxazol-4-yl}ethoxy)phenyl]propanoic acid] | 34
9 | CC/C(=C/C(=O)c1ccc(C(F)(F)F)cc1)N[C@@H](Cc1ccc(OCCc2nc(-c3ccc(F)cc3)sc2C)cc1)C(=O)O [Example 22, (2S)-2-({(Z)-1-ethyl-3-oxo-3-[4-(trifluoromethyl)phenyl]-1propenyl}amino)-3-(4-{2-[2-(4-fluorophenyl)-5-methyl-1,3-thiazol-4-yl]ethoxy}phenyl)propanoic acid] | 49
10 | CCCC/C(=C/C(=O)c1ccccc1)N[C@@H](Cc1ccc(OCCc2nc(-c3ccccc3)oc2C)cc1)C(=O)O [Example 23, (2S)-2-{[(Z)-1-butyl-3-oxo-3-phenyl-1-propenyl]amino}-3-{4-[2-(5-methyl-2-phenyl-1,3-oxazol-4-yl)ethoxy]phenyl}propanoic acid] | 86
11 | CCC/C(=C/C(=O)c1ccccc1)N[C@@H](Cc1ccc(OCCc2nc(-c3ccccc3)oc2C)cc1)C(=O)O [Example 40] | 79
